16 compounds from patent publication US20140154702A1, “Methods For Treating Cancer Using Combination Therapies” (ENDOCYTE, INC., priority 2012, published 2014) can be followed below.

Holding throughout (format): cell-based
Assay [1] concerns KB cells. The experiment in a line: 3H-EC0531 uptake study, KB cells. The following applies: for effect of inhibitor on nonspecific uptake of 3H-EC0531: 1 μM EC0531 plus inhibitor, 100 μM FA, 2 hours at 37° C. The protocol: (§1) To determine non-FR-targeted uptake, 100 μM FA was included in the uptake solutions. Cells were incubated with 0.5 mL of uptake solution for 2 h at 37° C., washed 3 times with ice-cold PBS, and were solubilized in 0.5 mL 1% SDS in PBS, pH 7.4. Cell lysates (450 μL) were added to 3 mL Ecolite+scintillation cocktail and counted in a liquid scintillation counter. Protein concentrations of the remaining lysates were determined using the BCA Protein Assay (Pierce, Rockford, Ill.). Molecules per cell were calculated based on DPM values and previously determined cellular protein conversion factors (2.82×10^−7 and 2.23×10^−7 mg protein per cell for KB and A549, respectively).
(§2) FA at a concentration of 100 μM was used as a competitor to determine non-FR-specific uptake in KB cells. Wells were then washed 3 times with 1 mL of ice-cold PBS, pH 7.4 and were processed for LSC analysis as described above.
(§3) Wells were then washed 3 times with 1 mL of ice-cold PBS, pH 7.4 and were processed for LSC analysis as described above.

The subject of assay [2] is A549 cells. The experiment in a line: 3H-EC0531 uptake study, A549 cells. The following applies: for effect of inhibitor on nonspecific uptake of 3H-EC0531: 1 μM EC0531 plus inhibitor, 2 hours at 37° C. The protocol: as §1, §2, §3
The subject of assay [3] is KB cells. Put plainly: Inhibition of non-FR-specific activity (cytotoxicity) of EC0531 by co-administered inhibitors, KB cells. The following applies: for IC50: read-out: IC50 of inhibition of non-FR-specific activity of EC0531. The protocol: Extracellular thiol activity was determined using the DTNB method described above. […] Cells were seeded in 24-well tissue culture-treated plates at 1×10^5 cells per well and allowed to attach overnight at 37° C. […] To assess non-FR-targeted activity in FR+cells, 100 μM FA was included as a competitor along with the drug in the treatment solutions. Cells were incubated for 2 hours in the presence of drug, washed 3 times with media, and then chased in 0.5 mL of FDRPMI/HIFBS (FR+cells) or RPMI+FA/HIFBS (FR−cells) to 72 h at 37° C. Spent medium was then aspirated from the wells, and cells were incubated with 1 μCi/mL ^3H-thymidine for 4 hours at 37° C., washed two times with PBS, pH 7.4, then treated with 0.4 mL 5% trichloroacetic acid per well. After 15 minutes, the trichloroacetic acid was aspirated from the wells, and cells were solubilized in 0.5 mL 0.25 N sodium hydroxide. Each sample (450 μL) was transferred to a scintillation vial containing 3 mL of Ecolite+scintillation cocktail and then counted in a liquid scintillation counter (LSC). Final results were expressed as percentage of ^3H-thymidine incorporation relative to an untreated control (non-competed groups) or FA control (competed groups).
The inhibition of non-FR-specific activity (i.e., cytotoxicity) was evaluated for each thiol inhibitor.
Cells were seeded in 24-well tissue culture-treated plates at 1×10^5 cells per well and allowed to attach overnight at 37° C. […] Cells were incubated for 2 hours in the presence of drug, competitor, and inhibitor, washed 3 times with media, and then chased in 0.5 mL of FDRPMI/HIFBS to 72 hours at 37° C. Cells were then treated as described above to determine ^3H-thymidine incorporation. Final results were expressed as percentage of ^3H-thymidine incorporation relative to an untreated control (non-competed groups) or FA control (competed groups).
The inhibition of non-FR-specific activity (i.e., cytotoxicity) was evaluated. KB cells were seeded in 24-well tissue culture-treated plates at 1×10^5 cells per well in FDRPMI/HIFBS and allowed to attach to the plates overnight at 37° C. […] Cells were incubated for 2 hours in the presence of drug, FA competitor, and inhibitor, washed 3 times with media, then chased in 0.5 mL of FDRPMI/HIFBS to 72 hours at 37° C. Cells were then treated as described above to determine ^3H-thymidine incorporation. Final results were expressed as percentage of ^3H-thymidine incorporation relative to an untreated control (non-competed groups) or FA control (competed groups). […]

For assay [4], the system named is A549 cells. Put plainly: Inhibition of non-FR-specific activity (cytotoxicity) of EC0531 by co-administered inhibitors, A549 cells. The following applies: sulfasalazine (1 mM), glutamate (5 mM) with increasing EC0531, 2 hours, chase to 72 hours, FIG. 14. The procedure: Cells were then treated as described above to determine ^3H-thymidine incorporation. The inhibition of non-FR-specific activity (i.e., cytotoxicity) was evaluated for each system xc^− inhibitor.

The test system of assay [5] is A549 cells. The experiment in a line: Extracellular thiol activity (DTNB method), A549 cells. To be noted: for effect on release of extracellular thiols (SH concentration): glutamate (5 mM), quisqualic acid (0.3 mM and 1 mM), 2 hours at 37° C., FIG. 12; for effect of added thiol on extracellular thiol activity (SH concentration): added to SH-free RPMI: GSSG (1.6 μM), cysteine (189 μM), 2 hours, FIG. 11.

The test system of assay [6] is KB cells. The experiment in a line: Inhibition of non-FR-specific activity (cytotoxicity) of EC0531 by co-administered inhibitors, KB cells. The following applies: KB cells pre-treated with inhibitor prior to EC0531 and folic acid; DTNB (100 μM), NCEM (10 mM); FIG. 6.
The mark [7] stands for this setting: KB cells, co-administered with EC0531 (1 μM) and folic acid (100 μM).
The mark [8] stands for this setting: KB cells, co-administered with EC0531 (1 μM) and folic acid (100 μM), 2 hours, 72 hour chase.
Setting [9] is: inhibitor concentration 3 mM, co-administration with EC0531.
The mark [10] stands for this setting: inhibitor concentration 100 μM, co-administration with EC0531.
The mark [11] stands for this setting: DTNB 10 μM and 100 μM, excess folic acid, FIG. 8.

“Also recorded” adds a separate entry of the source. Where two headings read alike, the source gives them in different places.

Regarding `CN(Cc1cnc2nc(N)nc(N)c2n1)c1ccc(C(=O)N[C@@H](CCC(=O)O)C(=O)O)cc1` [methotrexate], the “effect of inhibitor on nonspecific uptake of 3H-EC0531” value (“effect of inhibitor … of 3H-EC0531” below) in the assay with KB cells [1] and in the assay on A549 cells [2] was “ineffective” throughout.

`O=S(=O)(O)c1cc(N=C=S)ccc1C=Cc1ccc(N=C=S)cc1S(=O)(=O)O` [DIDS]: the “Inhibition of EC0531 Nonspecific Activity” value in the assay with KB cells [3] was “Full inhibition”. Besides, the “effect of inhibitor … of 3H-EC0531” value with KB cells [1] and in the assay on A549 cells [2] was “reduced” throughout.

For the compound `O=C(O)c1cc(/N=N/c2ccc(S(=O)(=O)Nc3ccccn3)cc2)ccc1O` [sulfasalazine], the “inhibition of non-FR-specific activity of EC0531 (in words)” value in the assay with KB cells [3] (setting [7]) was “dose-responsive inhibition”; with A549 cells [4], “inhibit; also recorded: greater inhibition”. Besides, in the assay on KB cells [3] (setting [8]), the IC50 (in general, the concentration needed to halve the response being measured) was found to be 170 µM. The “effect of inhibitor … of 3H-EC0531” value in the assay with KB cells [1] and in the assay on A549 cells [2] was “reduced” throughout.

Take `N[C@@H](CCC(=O)N[C@@H](CSCC(=O)Nc1ccc([As](O)O)cc1)C(=O)NCC(=O)O)C(=O)O` [EC1277 (GSAO), 4-(N—(S-glutathionylacetyl)amino) phenylarsonous acid]: the “Inhibition of EC0531 Nonspecific Activity” value with KB cells [3] (setting [9]) is on record as “Full inhibition”.

For the compound `N[C@@H](Cn1oc(=O)[nH]c1=O)C(=O)O` [quisqualic acid], the “effect on release of extracellular thiols (SH concentration)” value in the assay with A549 cells [5] is reported as “significantly reduce; also recorded: dose-dependent reduction”.

Consider `O=C(O)CCN1C(=O)C=CC1=O` [NCEM, N-(2-carboxyethyl)maleimide], for which the “inhibition of non-FR-specific activity of EC0531 (in words)” value with KB cells [3] (setting [7]) is “dose-responsive inhibition”. The “Inhibition of EC0531 Nonspecific Activity” value with KB cells [3] (setting [10]) is recorded as “Full inhibition”. Further, the IC50 in the assay on KB cells [3] (setting [8]) is 17 µM. In addition, the “effect of inhibitor … of 3H-EC0531” value in the assay on KB cells [1] and in the assay with A549 cells [2] was “reduced” in each case. In the assay on KB cells [6], the “inhibition of non-FR-specific activity of EC0531 by pre-treatment of cells” value was “not effective”.

As to `O=S(=O)([O-])CCSSCCS(=O)(=O)[O-].[Na+].[Na+]` [Dimesna, 2,2′-dithio-bis-ethanesulfonate], in the assay on KB cells [3], the “Inhibition of EC0531 Nonspecific Activity” value is listed as “Full inhibition”.

With oxidized glutathione [GSSG], the “Inhibition of EC0531 Nonspecific Activity” value in the assay on KB cells [3] is given as “Full inhibition”. The “effect of added thiol on extracellular thiol activity (SH concentration)” value in the assay with A549 cells [5] is given as “no effect”.

As for folate-maleimide, the “inhibition of non-FR-specific activity of EC0531 (in words)” value with KB cells [3] (setting [7]) was “dose-responsive inhibition”. Further, in the assay with KB cells [3] (setting [10]), the “Inhibition of EC0531 Nonspecific Activity” value is listed as “Full inhibition”. For the same compound, the IC50 in the assay with KB cells [3] (setting [8]) was found to be 3.5 µM.

In the case of `N[C@@H](CCC(=O)O)C(=O)O` [glutamate], the “inhibition of non-FR-specific activity of EC0531 (in words)” value with A549 cells [4] is given as “inhibit”. In addition, the “effect on release of extracellular thiols (SH concentration)” value with A549 cells [5] is recorded as “significantly reduce”.

Take `O=C1OC(c2ccc(O)c(S(=O)(=O)O)c2)(c2ccc(O)c(S(=O)(=O)O)c2)c2c(Br)c(Br)c(Br)c(Br)c21` [BSP]: the “Inhibition of EC0531 Nonspecific Activity” value in the assay on KB cells [3] is less than 50% inhibition.

Consider methoxy-PEG5000-vinylsulfone, for which the “Inhibition of EC0531 Nonspecific Activity” value in the assay on KB cells [3] (setting [9]) is given as greater than 50% inhibition.

Take `O=C(O[C@@H]1Cc2c(O)cc(O)cc2O[C@@H]1c1cc(O)c(O)c(O)c1)c1cc(O)c(O)c(O)c1` [EGCg, epigallocatechin gallate]: the “Inhibition of EC0531 Nonspecific Activity” value in the assay with KB cells [3] (100 µM) is greater than 50% inhibition.

In the case of `O=S(=O)([O-])c1cc[c]([Hg][Cl])cc1` [pCMBS, p-chloromercuribenzene sulfonate], in the assay with KB cells [3] (setting [10]), the “Inhibition of EC0531 Nonspecific Activity” value was greater than 50% inhibition.

In the case of `O=C(O)c1cc(SSc2ccc([N+](=O)[O-])c(C(=O)O)c2)ccc1[N+](=O)[O-]` [DTNB, 5,5′-dithiobis(2-nitrobenzoic acid)], the “inhibition of non-FR-specific activity of EC0531 (in words)” value with KB cells [3] (setting [7]) is “dose-responsive inhibition”. In addition, the “Inhibition of EC0531 Nonspecific Activity” value in the assay on KB cells [3] (inhibitor concentration 10 μM, co-administration with EC0531) is recorded as “Full inhibition”. The concentration for half-maximal inhibition (IC50) with KB cells [3] amounted to 4.6 µM. The “effect of inhibitor … of 3H-EC0531” value in the assay on KB cells [1] and with A549 cells [2] was “reduced” each time. Besides, the “effect of inhibitor on nonspecific uptake of 3H-folic acid” value in the assay with KB cells [1] (setting [11]) and with A549 cells [2] (setting [11]) was “mostly unaffected” in each case. Besides, the “inhibition of non-FR-specific activity of EC0531 by pre-treatment of cells” value with KB cells [6] is “not effective”.

Turning to `N[C@@H](CS)C(=O)O` [Cysteine, cysteine], the “effect of added thiol on extracellular thiol activity (SH concentration)” value in the assay with A549 cells [5] is given as “responsible for stimulation”.
